Several values for one entry are separate records, joined by “and”; a condition that tells them apart may be missing. Equal values may be shown once.
Experiment: xn = mol fraction of the nth substance listed

CCc1ccc(O)cc1 + C[N+](C)(C)CCO.[Cl-]
298.15 K, 101.33 kPa
Conditions	viscosity
x1 = 0.7	143.3 mPa·s
x1 = 0.8	84.18 mPa·s and 62.12 mPa·s and 53.08 mPa·s
x1 = 0.9	49.12 mPa·s

CCN(CC)CC + Cc1cc(C)cc(C)c1
viscosity [mPa·s], 101 kPa
Conditions	x2 = 0.1033	x2 = 0.2154	x2 = 0.2645	x2 = 0.3959	x2 = 0.5072	x2 = 0.6007	x2 = 0.7132	x2 = 0.7989	x2 = 0.8692
293.15 K	0.386	0.41	0.422	0.453	0.484	0.517	0.56	0.593	0.628
303.15 K	0.35	0.369	0.378	0.407	0.432	0.462	0.497	0.526	0.557
313.15 K	0.315	0.334	0.342	0.368	0.391	0.416	0.449	0.473	0.5
323.15 K	0.288	0.304	0.312	0.335	0.357	0.378	0.407	0.429	0.452

CC(C)[O-].CC(C)[O-].CC(C)[O-].CC(C)[O-].[Ti+4] + Cc1ccc(C)cc1
viscosity [mPa·s], 101.3 kPa
Conditions	x1 = 0.0401	x1 = 0.0871	x1 = 0.1382	x1 = 0.1994	x1 = 0.2719	x1 = 0.3593	x1 = 0.4654	x1 = 0.5987	x1 = 0.77
293.15 K	0.671	0.7098	0.7652	0.8373	0.9143	1.042	1.235	1.53	2.053
303.15 K	0.5881	0.6215	0.6649	0.7153	0.7695	0.855	0.9724	1.137	1.398
313.15 K	0.5226	0.5494	0.5813	0.6238	0.6641	0.7258	0.8058	0.9111	1.063
323.15 K	0.4655	0.4896	0.5162	0.5501	0.5849	0.6326	0.6922	0.7664	0.871

CCN(CC)CC + Cc1ccc(C)cc1
303.15 K, 101 kPa
Conditions	viscosity [mPa·s]
x1 = 0.0103	0.5611
x1 = 0.02055	0.5576
x1 = 0.03043	0.5525
x1 = 0.04261	0.5488
x1 = 0.05408	0.5433
x1 = 0.06646	0.5381
x1 = 0.07602	0.5342
x1 = 0.08463	0.5307
x1 = 0.09589	0.5253
x1 = 0.1075	0.5207

ClC(Cl)(Cl)Cl + Cc1ccc(C)cc1
298.15 K, 101 kPa
Conditions	viscosity [mPa·s]
x2 = 0.1	0.87
x2 = 0.2	0.8339
x2 = 0.3	0.7997
x2 = 0.4	0.7675
x2 = 0.5	0.7372
x2 = 0.6	0.7087
x2 = 0.7	0.6816
x2 = 0.8	0.6556
x2 = 0.9	0.6301

ClC(Cl)(Cl)Cl + Cc1cccc(C)c1
298.15 K, 101 kPa
Conditions	viscosity [mPa·s]
x1 = 0.1974	0.609
x1 = 0.3803	0.665
x1 = 0.4687	0.716
x1 = 0.5267	0.751
x1 = 0.5964	0.792
x1 = 0.7155	0.851
x1 = 0.8693	0.894
x1 = 0.9105	0.902

ClC(Cl)(Cl)Cl + Cc1ccccc1
viscosity [mPa·s], 101 kPa
Conditions	293.15 K	298.15 K	303.15 K	313.15 K
x1 = 0.1022	0.6227	0.5867	0.5527	0.4932
x1 = 0.1977	0.6508	0.6111	0.5749	0.5126
x1 = 0.3029	0.6875	0.6446	0.606	0.5394
x1 = 0.4043	0.7215	0.6753	0.634	0.5628
x1 = 0.4982	0.7585	0.712	0.6656	0.5897
x1 = 0.5988	0.7983	0.7461	0.6988	0.6181
x1 = 0.7091	0.8428	0.7861	0.7353	0.6485
x1 = 0.8107	0.8905	0.8298	0.7755	0.6831
x1 = 0.916	0.9415	0.88	0.8249	0.719
x2 = 0.1	–	0.8643	–	–
x2 = 0.2	–	0.8211	–	–
x2 = 0.3	–	0.7802	–	–
x2 = 0.4	–	0.7415	–	–
x2 = 0.5	–	0.7049	–	–
x2 = 0.6	–	0.6705	–	–
x2 = 0.7	–	0.6381	–	–
x2 = 0.8	–	0.6078	–	–
x2 = 0.9	–	0.5794	–	–
